{"source": "patent US20250127799A1", "about": "“DRUG CONJUGATES FOR BONE MARROW PROTECTION” (priority 2023, published 2025)", "key": {"CD2F1 male mice": {"tested_on": "CD2F1 male mice", "experiment": "In vivo radioprotective effects: 30-day survival after Cobalt-60 gamma irradiation", "conditions": "24 h before 9.2 Gy", "experimental": "(§1) CD2F1 male mice (N=16) were subcutaneously (sc) injected with a single dose of two different conjugates. For one protective drug conjugate (Conjugate 1), the tested doses were 200, 400, and 800 mg/kg. The structure of Conjugate 1 included amifostine as the protective drug, alendronate as the bone-targeting ligand, and a protease-cleavable peptide having the sequence of CKPLGLWAL (SEQ ID NO: 33) with acetylation at the N-terminus (e.g., AcCKPLGLWAL; SEQ ID NO: 74). […] The irradiated mice were monitored for survival for 30 days post-irradiation. […] For the vehicle control group, the mortalities of mice occurred during 8 to 17 days post-irradiation, and the final survival rate was 6.25% (1 out of 16 survived), indicating significant mortality by gamma-irradiation.\nFor another protective drug conjugate (Conjugate 2), the tested doses were 250, 500, 600, and 700 mg/kg, and the irradiation was conducted at 24 h post-drug administration. The structure of Conjugate 2 included amifostine as the protective drug, alendronate as the bone-targeting ligand, and a protease-cleavable peptide having the sequence of CPLGLYAL (SEQ ID NO: 29) with acetylation at the N-terminus (e.g., AcCPLGLYAL; SEQ ID NO: 76).\nas §1, with “a” for “two different conjugates. For one”, “1), and” for “1),”, “250, 300,” for “200, 400,”, “350” for “800”, “0% (0” for “6.25% (1”\nas §1, with “CD2F1 male mice (N=16) were subcutaneously (sc) injected CD2F1” for “CD2F1”, “a” for “two different conjugates. For one”, “1), and” for “1),”, “250, 300,” for “200, 400,”, “350” for “800”\nCD2F1 male mice (N=16) were subcutaneously (sc) injected CD2F1 male mice (N=16) were subcutaneously (sc) injected with a single dose of a protective drug conjugate (Conjugate 1), and the tested doses were 50, 100, and 200 mg/kg. The structure of Conjugate 1 included amifostine as the protective drug, alendronate as the bone-targeting ligand, and a protease-cleavable peptide having the sequence of CKPLGLWAL (SEQ ID NO: 33) with acetylation at the N-terminus (e.g., AcCKPLGLWAL; SEQ ID NO: 74). […] The irradiated mice were monitored for survival for […] post-irradiation. […] For the vehicle control group, the mortalities of mice occurred during 8 to 17 days post-irradiation, and the final survival rate was 0% (0 out of 16 survived), indicating significant mortality by gamma-irradiation.\nCD2F1 male mice (N=16) were subcutaneously (sc) injected CD2F1 male mice (N=16) were subcutaneously (sc) injected with a single dose of a protective drug conjugate, i.e., Conjugate 3. The tested doses were 250, 300, and 350 mg/kg. […]"}, "[1]": {"target": "matrix metalloproteinase 9 (MMP9) (Homo sapiens, UniProt P14780)", "sequence (P14780 94-707, species assumed)": "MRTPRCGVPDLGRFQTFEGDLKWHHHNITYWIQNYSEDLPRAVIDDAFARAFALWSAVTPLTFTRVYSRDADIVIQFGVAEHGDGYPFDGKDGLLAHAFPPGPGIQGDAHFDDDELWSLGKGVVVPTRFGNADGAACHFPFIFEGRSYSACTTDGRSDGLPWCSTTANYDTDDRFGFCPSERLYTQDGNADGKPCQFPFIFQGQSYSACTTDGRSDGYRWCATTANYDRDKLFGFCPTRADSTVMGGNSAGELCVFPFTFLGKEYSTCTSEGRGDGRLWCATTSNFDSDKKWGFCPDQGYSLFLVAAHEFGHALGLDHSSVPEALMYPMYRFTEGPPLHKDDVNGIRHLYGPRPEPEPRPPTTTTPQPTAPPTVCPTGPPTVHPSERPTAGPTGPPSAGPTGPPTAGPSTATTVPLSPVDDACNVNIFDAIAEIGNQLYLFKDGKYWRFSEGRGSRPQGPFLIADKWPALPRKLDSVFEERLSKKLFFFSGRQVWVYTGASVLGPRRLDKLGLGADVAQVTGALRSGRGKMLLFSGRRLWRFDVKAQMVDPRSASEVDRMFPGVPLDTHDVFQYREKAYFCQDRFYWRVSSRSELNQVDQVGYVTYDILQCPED", "experiment": "In vitro matrix metalloproteinase-based conjugate cleavage", "assay_type": "biochemical", "conditions": "isolated enzyme, MMP9, 37° C., up to 20 h, read-out: T1/2 of cleavage (converted)", "experimental": "In this exemplary representative cleavage experiment, a 90 μL stock solution of protective drug conjugate (1 mg/mL) was mixed with 2 μL of matrix metalloproteinase 9 (MMP9) (10 unit/μL) and 8.2 μL of 50 mM CaCl2 solution, followed by incubation at 37° C. for up to 20 h. A 10 μL sample was taken at 0.3, 1, 2, 4, 9, or 20 h for the HPLC analysis. Three conjugates having different peptide sequences (Conjugates 1-3) were used in this test: Conjugate 1-peptide sequence of CPLSLYAL (SEQ ID NO: 65); Conjugate 2-peptide sequence of CPLSLYSL (SEQ ID NO: 66); and Conjugate 3-peptide sequence of CPLGLAL (SEQ ID NO: 67). The concentrations of the conjugate residual in samples were normalized and presented as cleavage ratios."}}, "note": "Peptide text beside a SMILES is read from it. * marks the point of attachment. X1 = O=C(CCCCCN1C(=O)CC(*)C1=O)NCCCC(O)(P(=O)(O)O)P(=O)(O)O; X2 = O=P(O)(O)SCCNCCCN*", "data": [{"molecule": "CC(=O)N[C@@H](CSC1CC(=O)N(CCCCCC(=O)NCCCC(O)(P(=O)(O)O)P(=O)(O)O)C1=O)C(=O)N1CCC[C@H]1C(=O)N[C@@H](CC(C)C)C(=O)NCC(=O)N[C@@H](CC(C)C)C(=O)N[C@@H](Cc1ccc(O)cc1)C(=O)N[C@@H](C)C(=O)N[C@@H](CC(C)C)C(=O)NCCCNCCSP(=O)(O)O", "note": "(some centres unmarked) [Conjugate 2] (Ac-C(X1)PLGLYAL-X2)", "values": [{"measurement": "30-day survival rate", "setting": "CD2F1 male mice; 250 mg/kg sc", "value": 68.75, "unit": "%"}, {"measurement": "30-day survival rate", "setting": "CD2F1 male mice; 500 mg/kg sc", "value": 75, "unit": "%"}, {"measurement": "30-day survival rate", "setting": "CD2F1 male mice; 600 mg/kg sc", "value": 93.75, "unit": "%"}, {"measurement": "30-day survival rate", "setting": "CD2F1 male mice; 700 mg/kg sc", "value": 100, "unit": "%"}, {"measurement": "half-life at 0.898 mg/mL", "setting": "[1]", "value": "~7.5", "unit": "h"}]}]}
